Laboratory results published in PMC5698469, “Carrageenan catabolism is encoded by a complex regulon in marine heterotrophic bacteria” (Nature Communications, 2017).

Legend:
ZGAL_4655 = target: T1, ZGAL_4655 (Zobellia galactanivorans, UniProt G0L4M6); experiment: beta-galactosidase activity on artificial substrate; assay type: biochemical
T1 construct: gene bgaF
T1 sequence (G0L4M6 18-845): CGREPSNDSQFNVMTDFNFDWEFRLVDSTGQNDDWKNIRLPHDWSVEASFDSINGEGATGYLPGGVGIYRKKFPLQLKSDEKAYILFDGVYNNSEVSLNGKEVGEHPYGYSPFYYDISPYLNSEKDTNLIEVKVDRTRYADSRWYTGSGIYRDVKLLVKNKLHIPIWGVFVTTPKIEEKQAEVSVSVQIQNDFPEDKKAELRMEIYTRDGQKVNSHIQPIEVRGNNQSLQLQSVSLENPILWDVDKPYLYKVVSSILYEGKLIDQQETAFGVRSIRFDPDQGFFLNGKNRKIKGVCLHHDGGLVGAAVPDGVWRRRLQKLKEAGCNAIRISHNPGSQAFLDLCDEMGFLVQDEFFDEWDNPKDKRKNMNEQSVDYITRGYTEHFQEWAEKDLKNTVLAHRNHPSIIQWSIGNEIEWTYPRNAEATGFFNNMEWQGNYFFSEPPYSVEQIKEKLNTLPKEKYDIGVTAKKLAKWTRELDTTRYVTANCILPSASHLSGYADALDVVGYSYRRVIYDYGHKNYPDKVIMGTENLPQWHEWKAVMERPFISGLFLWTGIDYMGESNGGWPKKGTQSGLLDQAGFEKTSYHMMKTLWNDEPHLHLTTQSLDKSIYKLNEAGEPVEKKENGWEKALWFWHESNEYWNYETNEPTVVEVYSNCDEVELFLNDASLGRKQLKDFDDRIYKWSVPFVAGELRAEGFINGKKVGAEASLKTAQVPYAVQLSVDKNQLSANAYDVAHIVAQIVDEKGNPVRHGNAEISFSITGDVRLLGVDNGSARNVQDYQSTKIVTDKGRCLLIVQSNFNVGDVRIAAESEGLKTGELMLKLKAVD

ZGAL_3633 = target: T2, ZGAL_3633 (Zobellia galactanivorans, UniProt G0L1N0); experiment: as above; assay type: biochemical
T2 construct: gene bgaB
T2 sequence (G0L1N0 21-825): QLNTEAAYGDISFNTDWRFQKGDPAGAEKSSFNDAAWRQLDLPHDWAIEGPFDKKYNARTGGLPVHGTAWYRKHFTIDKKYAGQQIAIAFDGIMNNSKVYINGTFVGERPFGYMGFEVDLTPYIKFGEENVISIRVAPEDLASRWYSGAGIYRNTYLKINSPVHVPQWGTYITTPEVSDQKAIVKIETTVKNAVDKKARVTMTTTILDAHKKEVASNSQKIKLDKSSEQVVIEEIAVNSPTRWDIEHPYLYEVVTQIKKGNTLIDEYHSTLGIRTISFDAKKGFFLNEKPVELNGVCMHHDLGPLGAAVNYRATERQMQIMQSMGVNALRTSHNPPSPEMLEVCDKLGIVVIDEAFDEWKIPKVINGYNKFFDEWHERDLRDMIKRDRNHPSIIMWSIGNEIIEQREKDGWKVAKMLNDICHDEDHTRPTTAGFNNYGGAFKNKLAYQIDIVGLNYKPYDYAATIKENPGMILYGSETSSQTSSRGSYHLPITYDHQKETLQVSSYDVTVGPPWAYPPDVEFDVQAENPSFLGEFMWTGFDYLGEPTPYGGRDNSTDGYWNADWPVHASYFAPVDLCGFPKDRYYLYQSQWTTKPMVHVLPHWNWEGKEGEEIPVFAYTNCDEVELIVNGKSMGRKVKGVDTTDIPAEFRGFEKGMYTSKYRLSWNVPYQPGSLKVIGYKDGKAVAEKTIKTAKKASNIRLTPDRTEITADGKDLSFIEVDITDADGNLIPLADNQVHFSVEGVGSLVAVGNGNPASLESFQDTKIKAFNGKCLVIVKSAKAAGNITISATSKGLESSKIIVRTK

**Q.** With `O=[N+]([O-])c1ccc(O[C@@H]2O[C@H](CO)[C@H](O)[C@H](O)[C@H]2O)cc1` [pNP-beta-D-galactopyranoside] as the molecule, how does the “beta-galactosidase activity on artificial substrate” value (ZGAL_4655) read?
**A.** Its value is “recombinant enzymes displayed beta-galactosidase activity on an artificial substrate (pNP-beta-D-galactopyranoside”.

**Q.** What about the “beta-galactosidase activity on artificial substrate” value (ZGAL_3633) of the same molecule?
**A.** Its value is “recombinant enzymes displayed beta-galactosidase activity on an artificial substrate (pNP-beta-D-galactopyranoside”.
